According to ChEMBL document CHEMBL4732213, “Discovery of novel ceramide analogs with favorable pharmacokinetic properties and combination with AKT inhibitor against colon cancer” (Eur J Med Chem, 2021):
Activity calls are given as the source filed them. No cut-off for these calls is given here.

Experiments:
HT-29 [1] = test: Upregulation of p21 protein expression in human HT29 cells at 20 uM incubated for 24 hrs by Western blotting analysis; type: functional, cell-based
HT-29 [2] = test: Downregulation of c-Myc protein expression level in human HT29 cells at 20 uM incubated for 24 hrs by Western blotting analysis; type: functional, cell-based
HT-29 [3] = test: Induction of apoptosis in human HT29 cells assessed as increase in caspase-3 activity at 20 uM after 24 hrs in presence of 10 uM AKT inhibitor MK2206 by Western blot analysis; type: functional, cell-based
[4] = Tmax in BALB/c mouse at 50 mg/kg, ip; type: ADME, organism-based; details: in vivo
LoVo = test: Antiproliferative activity against human Lovo cells measured after 72 hrs by sulforhodamine B assay; type: functional, cell-based
[5] = Antiproliferative activity against human SNU878 cells measured after 72 hrs by sulforhodamine B assay; type: functional, cell-based; details: SNU878, 72 h
HT-29 [6] = test: Upregulation of p21 protein expression in human HT29 cells at 20 uM incubated for 24 hrs in presence of 10 uM AKT inhibitor MK2206 by Western blotting analysis; type: functional, cell-based
COLO-678 [7] = test: Antiproliferative activity against human COLO 678 cells measured after 72 hrs by sulforhodamine B assay; type: functional, cell-based; details: COLO-678, 72 h
HT-29 [8] = test: Induction of apoptosis in human HT29 cells at 15 uM after 48 hrs by Annexin-V-FITC/PI staining based flow cytometric analysis; type: functional, cell-based
HT-29 [9] = test: Down regulation of p-RB expression in human HT29 cells at 20 uM incubated for 24 hrs by Western blotting analysis; type: functional, cell-based
SW480 = test: Additive antiproliferative activity against human SW480 cells assessed as combination index at 10 uM after 72 hrs in presence of 5 uM AKT inhibitor MK2206 by Chou-Talalay method; type: functional
HT-29 [10] = test: Induction of apoptosis in human HT29 cells at 15 uM after 48 hrs in presence of 7.5 uM AKT inhibitor MK2206 by Annexin-V-FITC/PI staining based flow cytometric analysis; type: functional
HT-29 [11] = test: Additive antiproliferative activity against human HT29 cells assessed as combination index at 10 uM after 72 hrs in presence of 2.5 uM AKT inhibitor MK2206 by Chou-Talalay method; type: functional
SW-620 = test: Antiproliferative activity against human SW620 cells measured after 72 hrs by sulforhodamine B assay; type: functional, cell-based; details: SW-620, 72 h
HT-29 [12] = test: Induction of cell cycle arrest in human HT29 cells assessed as accumulation at G0/G1 phase at 20 uM after 24 hrs by PI staining based flow cytometry analysis; type: functional
HT-29 [13] = test: Down regulation of p-RB expression in human HT29 cells at 20 uM incubated for 24 hrs in presence of 10 uM AKT inhibitor MK2206 by Western blotting analysis; type: functional, cell-based
HT-29 [14] = test: Antiproliferative activity against human HT-29 cells measured after 72 hrs by sulforhodamine B assay; type: functional, cell-based; details: HT-29, 72 h
HT-29 [15] = test: Induction of ROS generation in human HT29 cells at 20 uM after 16 hrs by flow cytometric analysis; type: functional, cell-based
HT-29 [16] = test: Induction of cell cycle arrest in human HT29 cells assessed as accumulation at G0/G1 phase at 20 uM after 24 hrs in presence of 10 uM AKT inhibitor MK2206 by PI staining based flow cytometry analysis; type: functional
HT-29 [17] = test: Induction of apoptosis in human HT29 cells assessed as increase in PARP cleavage at 20 uM after 48 hrs in presence of 10 uM AKT inhibitor MK2206 by Western blot analysis; type: functional, cell-based
HT-29 [18] = test: Induction of apoptosis in human HT29 cells assessed as increase in caspase-3 cleavage at 20 uM after 48 hrs in presence of 10 uM AKT inhibitor MK2206 by Western blot analysis; type: functional, cell-based
[19] = AUC(0 to t) in BALB/c mouse at 50 mg/kg, ip; type: ADME, organism-based; parameters: dose 50 mg/kg; details: in vivo
HT-29 [20] = test: Antitumor activity against human HT-29 cells xenografted in BALB/c nude mouse assessed as reduction in tumor weight at 100 mg/kg/day, ip measured every 3 days in presence of 50 mg/kg AKT inhibitor MK2206 by electronic caliper method; type: functional, organism-based; details: time 3.0 day
COLO-678 [21] = test: Synergistic antiproliferative activity against human COLO-678 cells assessed as combination index at 30 uM after 72 hrs in presence of 7.5 uM AKT inhibitor MK2206 by Chou-Talalay method; type: functional
HT-29 [22] = test: Downregulation of c-Myc protein expression level in human HT29 cells at 20 uM incubated for 24 hrs in presence of 10 uM AKT inhibitor MK2206 by Western blotting analysis; type: functional, cell-based
GES1 = test: Antiproliferative activity against human GES1 cells measured after 72 hrs by sulforhodamine B assay; type: cell-based; details: GES1, 72 h
COLO-678 [23] = test: Additive antiproliferative activity against human COLO-678 cells assessed as combination index at 20 uM after 72 hrs in presence of 5 uM AKT inhibitor MK2206 by Chou-Talalay method; type: functional
HT-29 [24] = test: Antitumor activity against human HT-29 cells xenografted in BALB/c nude mouse assessed as tumor growth inhibition at 100 mg/kg/day, ip measured every 3 days in presence of 50 mg/kg AKT inhibitor MK2206 by electronic caliper method; type: functional; details: HT-29, ip, 72 h, time 3 day, read-out: TGI
COLO-678 [25] = test: Additive antiproliferative activity against human COLO-678 cells assessed as combination index at 10 uM after 72 hrs in presence of 2.5 uM AKT inhibitor MK2206 by Chou-Talalay method; type: functional
[26] = Half life in BALB/c mouse at 10 mg/kg, iv; type: ADME, organism-based; details: in vivo
HT-29 [27] = test: Down regulation of CDK2 expression in human HT29 cells at 20 uM incubated for 24 hrs in presence of 10 uM AKT inhibitor MK2206 by Western blotting analysis; type: functional, cell-based
HT-29 [28] = test: Synergistic antiproliferative activity against human HT29 cells assessed as combination index at 30 uM after 72 hrs in presence of 7.5 uM AKT inhibitor MK2206 by Chou-Talalay method; type: functional
WI-38 = test: Antiproliferative activity against human WI-38 cells measured after 72 hrs by sulforhodamine B assay; type: cell-based; details: WI-38, 72 h
HT-29 [29] = test: Induction of apoptosis in human HT29 cells assessed as inhibition of AKT phosphorylation at 20 uM after 48 hrs in presence of 10 uM MK2206 by Western blotting analysis; type: functional, cell-based
T84 = test: Additive antiproliferative activity against human T84 cells assessed as combination index at 10 uM after 72 hrs in presence of 5 uM AKT inhibitor MK2206 by Chou-Talalay method; type: functional
HT-29 [30] = test: Induction of apoptosis in human HT29 cells assessed as inhibition of AKT phosphorylation at 20 uM after 48 hrs by Western blotting analysis; type: functional, cell-based
HT-29 [31] = test: Antitumor activity against human HT-29 cells xenografted in BALB/c nude mouse assessed as tumor growth inhibition at 100 mg/kg/day, ip measured every 3 days by electronic caliper method; type: functional; details: HT-29, ip, 72 h, time 3 day, read-out: TGI
HT-29 [32] = test: Induction of ROS generation in human HT29 cells at 20 uM after 16 hrs in presence of 10 uM AKT inhibitor MK2206 by flow cytometric analysis; type: functional, cell-based

SMILES: CCCCCCCOc1ccc(CCC(CO)(CO)NC(C)=O)c2ccccc12
- Activity (HT-29 [1]): inactive
- Activity (HT-29 [2]): inactive
- Activity (HT-29 [3]): Active
- Tmax [4]: 0.75 h
- IC50 (LoVo): 26.4 µM
- IC50 [5]: 6.68 µM
- Activity (HT-29 [6]): Active
- IC50 (COLO-678 [7]): 20.7 µM
- Activity (HT-29 [8]): inactive
- Activity (HT-29 [9]): inactive
- CI (SW480): 0.9
- Activity (HT-29 [10]): 40%
- CI (HT-29 [11]): 1.05
- IC50 (SW-620): 29.6 µM
- Activity (HT-29 [12]): inactive
- Activity (HT-29 [13]): Active
- IC50 (HT-29 [14]): 17.6 µM
- Activity (HT-29 [15]): inactive
- Activity (HT-29 [16]): Active
- Activity (HT-29 [17]): Active
- Activity (HT-29 [18]): Active
- AUC(0-t) [19]: 15600 ng·h/mL
- Activity (HT-29 [20]): Active
- CI (COLO-678 [21]): 0.43
- Activity (HT-29 [22]): Active
- IC50 (GES1): 41.8 µM
- CI (COLO-678 [23]): 0.89
- inhibition in vivo at 100 mg/kg/day (HT-29 [24]): 47.5%
- CI (COLO-678 [25]): 0.87
- half-life [26]: 3.12 h
- Activity (HT-29 [27]): Active
- CI (HT-29 [28]): 0.53
- IC50 (WI-38): 50.9 µM
- Activity (HT-29 [29]): inactive
- CI (T84): 1.01
- Activity (HT-29 [30]): Active
- inhibition in vivo at 100 mg/kg/day (HT-29 [31]): 25.4%
- Activity (HT-29 [32]): Active
